Assay results from the NIST ThermoML archive (doi:10.1021/je900266h).
± gives the expanded uncertainty stated by the source.

What was measured:
[1] = refractive index (Na D-line) (dimensionless); mn = molality of the nth substance listed, in mol/kg; conditions: 101 kPa, Liquid, Standard Abbe refractometry
[2] = refractive index (Na D-line) (dimensionless); conditions: 101.33 kPa, Liquid, Standard Abbe refractometry
[3] = refractive index (Na D-line) (dimensionless); wn = mass fraction of the nth substance listed; conditions: 101 kPa, Liquid, Standard Abbe refractometry, w2 = 0

O [water] + O=S(=O)([O-])[O-].[Cu+2]
[1], m2 = 0
Conditions	refractive index
288.15 K	1.33339 ± 0.00041
298.15 K	1.33248 ± 0.00041
308.15 K	1.33128 ± 0.00041
318.15 K	1.32979 ± 0.00041

O [water] + O=S(=O)([O-])[O-].[Li+].[Li+]
[1], m2 = 0
Conditions	refractive index
288.15 K	1.33339 ± 0.00041
298.15 K	1.33248 ± 0.00041
308.15 K	1.33128 ± 0.00041
318.15 K	1.32979 ± 0.00041

CCO [ethanol]
[2]
Conditions	refractive index
288.15 K	1.36344 ± 0.00042
298.15 K	1.35922 ± 0.00042
308.15 K	1.35477 ± 0.00042
318.15 K	1.35068 ± 0.00042

O=S(=O)([O-])[O-].[Li+].[Li+] [lithium sulfate] + O
refractive index, [1]
Conditions	288.15 K	298.15 K	308.15 K	318.15 K
m1 = 0.252	1.3383 ± 0.00041	1.33727 ± 0.00041	1.33612 ± 0.00041	1.33446 ± 0.00041
m1 = 0.4681	1.34212 ± 0.00041	1.34096 ± 0.00041	1.33987 ± 0.00041	1.33812 ± 0.00041
m1 = 0.7337	1.34651 ± 0.00041	1.34534 ± 0.00041	1.34419 ± 0.00041	1.3426 ± 0.00041
m1 = 0.9917	1.35062 ± 0.00041	1.34944 ± 0.00041	1.34829 ± 0.00041	1.3467 ± 0.00041
m1 = 1.245	1.3544 ± 0.00041	1.35316 ± 0.00041	1.35198 ± 0.00041	1.35056 ± 0.00041
m1 = 1.468	1.35752 ± 0.00042	1.35628 ± 0.00042	1.35518 ± 0.00042	1.35375 ± 0.00042
m1 = 1.756	1.3614 ± 0.00042	1.36011 ± 0.00042	1.35905 ± 0.00042	1.35765 ± 0.00042
m1 = 1.757	1.36143 ± 0.00042	1.36015 ± 0.00042	1.35909 ± 0.00042	1.35767 ± 0.00042
m1 = 1.939	1.36365 ± 0.00042	1.36242 ± 0.00042	1.36134 ± 0.00042	1.35998 ± 0.00042
m1 = 2.124	1.36601 ± 0.00042	1.36472 ± 0.00042	1.36368 ± 0.00042	1.36227 ± 0.00042
m1 = 2.306	1.36812 ± 0.00042	1.36691 ± 0.00042	1.36574 ± 0.00042	1.36453 ± 0.00042
m1 = 2.542	1.3709 ± 0.00042	1.36964 ± 0.00042	1.3685 ± 0.00042	1.3672 ± 0.00042
m1 = 2.798	1.3736 ± 0.00042	1.37243 ± 0.00042	1.37124 ± 0.00042	1.37003 ± 0.00042
m1 = 2.983	1.37551 ± 0.00042	1.37442 ± 0.00042	1.37316 ± 0.00042	1.37206 ± 0.00042
m1 = 3.158	1.37704 ± 0.00042	–	–	–
m1 = 3.22	1.37774 ± 0.00042	–	–	–

O [water] + CCO
[3]
Conditions	refractive index
288.15 K	1.33339 ± 0.00041
298.15 K	1.33248 ± 0.00041
308.15 K	1.33128 ± 0.00041
318.15 K	1.32979 ± 0.00041

O [water] + O=S(=O)([O-])[O-].[Mg+2]
[1], m2 = 0
Conditions	refractive index
288.15 K	1.33339 ± 0.00041
298.15 K	1.33248 ± 0.00041
308.15 K	1.33128 ± 0.00041
318.15 K	1.32979 ± 0.00041

O=S(=O)([O-])[O-].[Cu+2] [copper sulfate] + O
refractive index, [1]
Conditions	288.15 K	298.15 K	308.15 K	318.15 K
m1 = 0.1346	1.33752 ± 0.00041	1.33658 ± 0.00041	1.33528 ± 0.00041	1.33371 ± 0.00041
m1 = 0.3007	1.34217 ± 0.00041	1.34125 ± 0.00041	1.33987 ± 0.00041	1.33834 ± 0.00041
m1 = 0.4408	1.34604 ± 0.00041	1.3451 ± 0.00041	1.3436 ± 0.00041	1.34204 ± 0.00041
m1 = 0.5896	1.35008 ± 0.00041	1.34915 ± 0.00041	1.34753 ± 0.00041	1.34587 ± 0.00041
m1 = 0.7359	1.35392 ± 0.00042	1.35287 ± 0.00041	1.35129 ± 0.00041	1.34951 ± 0.00041
m1 = 0.859	1.35712 ± 0.00042	1.35606 ± 0.00042	1.35427 ± 0.00042	1.35249 ± 0.00042
m1 = 1.016	1.36104 ± 0.00042	1.36002 ± 0.00042	1.35816 ± 0.00042	1.35632 ± 0.00042
m1 = 1.179	1.3651 ± 0.00042	1.36398 ± 0.00042	1.36209 ± 0.00042	1.36027 ± 0.00042
m1 = 1.301	1.36803 ± 0.00042	1.367 ± 0.00042	1.365 ± 0.00042	1.36305 ± 0.00042
m1 = 1.456	–	1.3706 ± 0.00042	1.36872 ± 0.00042	1.36664 ± 0.00042
m1 = 1.579	–	–	1.37162 ± 0.00042	1.36952 ± 0.00042
m1 = 1.736	–	–	–	1.37296 ± 0.00042
m1 = 1.891	–	–	–	1.37632 ± 0.00042
m1 = 2.058	–	–	–	1.38013 ± 0.00042

O [water]
[2]
Conditions	refractive index
288.15 K	1.33339 ± 0.00041
298.15 K	1.33248 ± 0.00041
308.15 K	1.33128 ± 0.00041
318.15 K	1.32979 ± 0.00041

O=S(=O)([O-])[O-].[Mg+2] [magnesium sulfate] + O
refractive index, [1]
Conditions	288.15 K	298.15 K	308.15 K	318.15 K
m1 = 0.2096	1.33858 ± 0.00041	1.33762 ± 0.00041	1.33629 ± 0.00041	1.33491 ± 0.00041
m1 = 0.3448	1.34163 ± 0.00041	1.34072 ± 0.00041	1.3393 ± 0.00041	1.33803 ± 0.00041
m1 = 0.5911	1.3471 ± 0.00041	1.34594 ± 0.00041	1.34463 ± 0.00041	1.34335 ± 0.00041
m1 = 0.7832	1.35115 ± 0.00041	1.35009 ± 0.00041	1.34872 ± 0.00041	1.34735 ± 0.00041
m1 = 0.9997	1.35558 ± 0.00041	1.35438 ± 0.00041	1.35295 ± 0.00041	1.3516 ± 0.00041
m1 = 1.19	1.35934 ± 0.00041	1.3581 ± 0.00042	1.35667 ± 0.00042	1.35532 ± 0.00041
m1 = 1.379	1.36292 ± 0.00042	1.36174 ± 0.00042	1.36037 ± 0.00042	1.35894 ± 0.00042
m1 = 1.621	1.3674 ± 0.00042	1.36613 ± 0.00042	1.36468 ± 0.00042	1.36342 ± 0.00042
m1 = 1.867	1.37176 ± 0.00042	1.37039 ± 0.00042	1.36899 ± 0.00042	1.3677 ± 0.00042
m1 = 2.12	1.376 ± 0.00042	1.37469 ± 0.00042	1.3732 ± 0.00042	1.37185 ± 0.00042
m1 = 2.36	1.37993 ± 0.00042	1.37853 ± 0.00042	1.37709 ± 0.00042	1.37586 ± 0.00042
m1 = 2.592	1.38344 ± 0.00042	1.38211 ± 0.00042	1.38069 ± 0.00042	1.37944 ± 0.00042
m1 = 2.859	–	1.38613 ± 0.00042	1.38461 ± 0.00042	1.38352 ± 0.00042
m1 = 3.087	–	1.38927 ± 0.00042	1.3878 ± 0.00042	1.38662 ± 0.00042
m1 = 3.347	–	–	1.39151 ± 0.00042	1.39026 ± 0.00042
m1 = 3.579	–	–	1.3945 ± 0.00042	1.39328 ± 0.00042
m1 = 3.807	–	–	–	1.39614 ± 0.00042
m1 = 3.998	–	–	–	1.39817 ± 0.00042
